Data: patent publication US10106532B2, “Inhibitors of beta-hydroxylase for treatment of cancer” (MIDWESTERN UNIVERSITY, priority 2012, dated 2018)
“Also recorded” adds a separate entry of the source.

Experiments:
FOCUS cells [1] = test: anchorage independent growth in soft agar; format: cell-based, human; conditions: 3 weeks of culture
Protocol: The effect of MO-1-1100 on anchorage independent growth in soft agar was evaluated. The ability of forming colonosphere in soft agar is considered to be a rigid test for tumorigenic potential. ASPH expression results in cells acquiring the ability to form colonospheres in soft agar. […] In order to evaluate the effect of ASPH inhibitor for anchorage independent colony formation, FOCUS cells were incubated in soft agar with or without this ASPH enzymatic inhibitor. After 3 weeks incubation, MO-1-1100 reduced colonosphere formation of FOCUS cells (FIG. 9A). […] This assay is a standard method to monitor malignant growth that reflects the ability to form tumors that grow aggressively in vivo.

NIH 3T3 cells = test: cell viability; format: cell-based, mouse; conditions: 5 μM, NIH 3T3 cells with no expression of ASPH
Huh7 = test: cell viability; format: cell-based, human; conditions: 5 μM
ASPH = target: T1, ASPH (Homo sapiens, UniProt Q12797); test: binding to ASPH by isothermal titration calorimetry
T1 sequence (Q12797 1-758): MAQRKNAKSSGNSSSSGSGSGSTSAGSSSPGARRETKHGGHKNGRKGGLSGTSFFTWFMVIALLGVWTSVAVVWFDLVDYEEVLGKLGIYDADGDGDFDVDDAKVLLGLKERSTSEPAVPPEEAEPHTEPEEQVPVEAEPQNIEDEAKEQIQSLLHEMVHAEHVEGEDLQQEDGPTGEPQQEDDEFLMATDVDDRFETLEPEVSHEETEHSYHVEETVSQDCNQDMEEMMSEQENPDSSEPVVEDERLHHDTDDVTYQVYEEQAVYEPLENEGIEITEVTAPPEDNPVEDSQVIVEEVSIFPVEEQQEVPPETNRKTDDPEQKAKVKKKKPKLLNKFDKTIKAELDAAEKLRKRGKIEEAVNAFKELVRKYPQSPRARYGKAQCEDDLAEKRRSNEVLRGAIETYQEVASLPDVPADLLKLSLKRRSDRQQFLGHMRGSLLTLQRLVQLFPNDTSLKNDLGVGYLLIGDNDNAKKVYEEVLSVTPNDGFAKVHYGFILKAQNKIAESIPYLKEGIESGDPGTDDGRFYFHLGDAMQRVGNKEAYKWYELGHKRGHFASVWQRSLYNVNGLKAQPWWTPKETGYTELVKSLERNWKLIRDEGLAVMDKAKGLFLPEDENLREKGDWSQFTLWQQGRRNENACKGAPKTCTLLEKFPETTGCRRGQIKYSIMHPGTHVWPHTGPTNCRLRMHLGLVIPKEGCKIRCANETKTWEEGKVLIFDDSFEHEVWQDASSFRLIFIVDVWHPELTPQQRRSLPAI
Excerpt: In the second step arylhydroxytetronimide was sulfonylated with phenylmethansulfonyl chloride in dry tetrahydrofuran to yield compounds of formula 1 (shown below). Compounds were characterized by 1H and 13C nuclear magnetic resonance, high resolution mass spectroscopy, high performance liquid chromatography, infra-red spectroscopy, melting point, elemental analysis and binding to ASPH by isothermal titration calorimetry.
Candidate parent compounds were selected as inhibitors for β-hydroxylase activity based on crystal structure of the catalytic site in the C-terminal region of ASPH and computer assisted drug design.

NIH-3T3 cells = test: MTT assay (cell proliferation, metabolic activity); format: cell-based, mouse
Protocol: A MTT assay was performed to evaluate the effect of MO-1-1100 on cell proliferation and viability. MTT is reduced to purple formazan in living cells. FOCUS cells were used as a high ASPH expressing human HCC cell line. […] The MTT assay measures cellular metabolic activity via NAD(P)H-dependent cellular oxidoreductase enzymes. […] In order to evaluate the effect of long-term exposure of MO-1-1100, the colony formation assay (an assay of malignant potential and phenotype) in which cells were treated with inhibitor for 3 weeks was performed.

FOCUS cells [2] = test: directional motility, Boyden chamber-type culture inserts; format: cell-based, human; conditions: 5 μM pretreatment for 24 hours, migration 30 min
Protocol: The β-hydroxylase activity is required for ASPH to mediate its effects on cell motility. Directional motility was measured using Boyden chamber-type culture inserts equipped with porous membranes. FOCUS cells were pretreated with 5 μM of MO-1-1100 and MO-1-500 β-hydroxylase inhibitor for 24 hours, and then placed into the upper chamber. Migration was allowed to proceed for 30 min. ATPLite was used to quantify viable cell density. The cells in the upper well and upper surface of membrane reflects the number of non-migrating cells, luminescence measured at the bottom surface of the membrane reflects the number of migrating and non-adherent cells and luminescence measured in the bottom well was reflect migrating and non-adherent cells. […] Cell invasiveness was assessed by invasion assay using matrigel coated membrane, in which cells were allowed to proceed for 6 hours; those found adhered on the bottom surface of membrane were regarded as invading cells.

[3] = tested on: human HCC cell line FOCUS; test: subcutaneous xenograft of human hepatocellular carcinoma; format: in vivo, mouse; conditions: 20 mg/kg per day
Protocol: The human HCC cell line FOCUS is known to be a highly aggressive tumor forming cell line in vivo. To investigate in vivo anti-tumor efficacy of the ASPH inhibitor, MO-1-1100 at 20 mg/kg per day was administered on 5 consecutive days for 2 weeks and every other day thereafter. […] Such findings indicate that any ASPH expressing human tumor are responsive to these specific β-hydroxylase inhibitors. These ASPH inhibitor compounds represent a class of anti-tumor agents that has substantial anti-tumor activity against a large number of solid human tumors known to have a dismal prognosis.

Structure (SMILES): NC1=C(OS(=O)(=O)Cc2ccccc2)C(=O)C(c2ccc(Cl)cc2)O1 (racemic) [MO-1-1100]
- number and size of colonies in soft agar (FOCUS cells [1]): dose-dependent and highly significant reduction; also recorded: reduces
- decreased cell viability (NIH 3T3 cells): not
- cell viability, inhibition rate (Huh7): 50%
- ASPH binding (ASPH): confirmed to demonstrate ASPH binding
- specificity for the β-hydroxylase activity of ASPH (NIH-3T3 cells; FOCUS (express ASPH) versus NIH-3T3 (do not express ASPH)): highly specific; also recorded: more highly specific
- OD value of MTT (NIH-3T3 cells; NIH-3T3 cells not expressing ASPH): no effect; also recorded: resistant
- cell migration / motility (FOCUS cells [2]): significantly inhibited
- migrating and adherent cells (FOCUS cells [2]): significantly reduced
- population of non-adherent cells (FOCUS cells [2]): unchanged
- total migrated cells (FOCUS cells [2]): reduced
- signs of wasting or other adverse effects relative to control mice [3]: None of the MO-1-1100 treated mice showed signs
- tolerability [3]: tolerated well
- HCC subcutaneous xenograft growth ([3]; 5 consecutive days for 2 weeks and every other day thereafter): significantly reduced; also recorded: strikingly reduces
- tumor volumes reduced, average, compared to control mice ([3]; day 12 following treatment): 31.7%
